Values of other authors, collected in US20080104001A1, “ALGORITHM FOR ESTIMATION OF BINDING EQULIBRIA IN INCLUSION COMPLEXATION, HOST COMPOUNDS IDENTIFIED THEREBY AND COMPOSITIONS OF HOST COMPOUND AND PHARMACEUTICAL” (priority 2006, published 2008).

Settings: by itself, without cyclodextrin

Row | Compound | aqueous solubility
1 | CCC(C)n1ncn(-c2ccc(N3CCN(c4ccc(OCC5COC(Cn6cncn6)(c6ccc(Cl)cc6Cl)O5)cc4)CC3)cc2)c1=O (stereo not shown) [itraconazole] | less than 0.1 microgram/mL

Settings: cross-validation set; literature values

Row | Compound | Log K(1:1) Measured
2 | Ic1ccc(I)cc1 [1,4 diiodobenzene] | 3.18
3 | O=C(O)C12CCC(CC1)C2 [1-bicyclo[2.2.1]heptanecarboxylic acid] | 4.18
4 | O=C(O)c1cccc(O)c1 [3-hydroxybenzoic acid] | 2.46
5 | Nc1ccc(C(=O)O)cc1 [4-aminobenzoic acid] | 2.70
6 | NC(=O)N1c2ccccc2C=Cc2ccccc21 [Carbamazepine] | 2.83
7 | CN[C@@H](C)[C@H](O)c1ccccc1 [Ephedrine] | 2.25
8 | Nc1ccc(-c2ccc(N)cc2)cc1 [benzidine] | 3.36
9 | CN1C(=O)CC(=O)N(c2ccccc2)c2cc(Cl)ccc21 [clobazam] | 1.73
10 | O=C1CN=C(c2ccccc2Cl)c2cc([N+](=O)[O-])ccc2N1 [clonazepam] | 1.9
11 | OC1CCC1 [cyclobutanol] | 1.18
12 | COc1ccc2c(c1)c(CC(=O)O)c(C)n2C(=O)c1ccc(Cl)cc1 [indomethacin] | 2.72
13 | O=C(O)c1ccc(O)cc1 [p-hydroxybenzoic-acid] | 3.03

Same assay, conditions: training set; published stability constants (Connors, 1995)

Row | Compound | Log K(1:1)
14 | Cc1cccc(C)c1C [1,2,3-trimethylbenzene] | 2.26
15 | Cc1ccc(C)c(C)c1 [1,2,4-trimethylbenzene] | 2.94
16 | Oc1ccccc1O [1,2-benzenediol] | 2.04
17 | Oc1cccc(O)c1 [1,3-benzenediol] | 2.04
18 | Oc1ccc(O)cc1 [1,4-benzenediol] | 2.09
19 | Brc1ccc(Br)cc1 [1,4-dibromobenzene] | 2.97
20 | Clc1ccc(Cl)cc1 [1,4-dichlorobenzene] | 2.51
21 | Fc1ccc(F)cc1 [1,4-difluorobenzene] | 1.6
22 | Cc1ccc(C)c2ccccc12 [1,4-dimethylnaphthalene] | 2.54
23 | Cc1cccc2c(C)cccc12 [1,5-dimethylnaphthalene] | 2.3
24 | O=C(O)C12CC3CC(CC(C3)C1)C2 [1-adamantanecarboxylic-acid] | 5.81
25 | CC(C)c1ccccc1 [1-methylethylbenzene] | 3.08
26 | Cc1cccc2ccccc12 [1-methylnaphthalene] | 2.64
27 | Oc1cccc2ccccc12 [1-naphthol] | 2.09
28 | CCCCCCCCO [1-octanol] | 3.29
29 | CCCCCO [1-pentanol] | 1.97
30 | Cc1ccc2ccccc2c1 [2-methylnaphthalene] | 2.85
31 | Cc1ccccc1O [2-methylphenol] | 2.12
32 | Oc1ccc2ccccc2c1 [2-naphthol] | 2.77
33 | CCCCCCC(C)O (stereo not shown) [2-octanol] | 3.13
34 | CCCC(C)O (stereo not shown) [2-pentanol] | 1.65
35 | CC(C)CCO [3-methyl-1-butanol] | 2.21
36 | Cc1cccc(O)c1 [3-methylphenol] | 2.34
37 | CCC1(CC)C(=O)NC(=S)NC1=O [5,5-diethyl-2-thiobarbituric acid] | 2.47
38 | CCCCCCCC1(CC)C(=O)NC(=O)NC1=O [5-ethyl-5-heptylbarbituric acid] | 3.61

Row | Compound | Log K(1:1)
39 | CCCCCC1(CC)C(=O)NC(=O)NC1=O [5-ethyl-5-pentylbarbituric acid] | 3.1
40 | CCCC1(CC)C(=O)NC(=O)NC1=O [5-ethyl-5-propylbarbituric acid] | 2.19
41 | C1=Cc2cccc3cccc1c23 [Acenaphthylene] | 2.41
42 | c1ccc2nc3ccccc3cc2c1 [Acridine] | 2.46
43 | Nc1ccccc1 [Aniline] | 1.89
44 | COc1ccccc1 [Anisole] | 2.14
45 | C[C@]12CCC(=O)C=C1CC[C@@H]1[C@@H]2C(=O)C[C@@]2(C)[C@H]1CC[C@]2(O)C(=O)CO [Cortisone] | 3.39
46 | CCC1(C2=CCCCC2)C(=O)NC(=O)NC1=O [Cyclobarbital] | 3.11
47 | OC1CCCCC1 [Cyclohexanol] | 2.75
48 | C1CCCCCCC1 [Cyclooctane] | 3.23
49 | O=C(O)Cc1ccccc1Nc1c(Cl)cccc1Cl [Diclofenac] | 2.18
50 | CCCCCCC [Heptane] | 1.84
51 | CCN(CC)c1ccccc1 [N,N-diethylaniline] | 2.96
52 | O=C1NC(=O)C(c2ccccc2)(c2ccccc2)N1 [Phenytoin] | 2.93
53 | C[C@]12C=CC(=O)C=C1CC[C@@H]1[C@@H]2[C@@H](O)C[C@@]2(C)[C@H]1CC[C@]2(O)C(=O)CO [Prednisolone] | 3.45
54 | CC(=O)[C@H]1CC[C@H]2[C@@H]3CCC4=CC(=O)CC[C@]4(C)[C@H]3CC[C@]12C [Progesterone] | 4.28
55 | C=CCC1(C(C)CCC)C(=O)NC(=O)NC1=O (stereo not shown) [Secobarbital] | 3.26
56 | C[C@]12CC[C@H]3[C@@H](CCC4=CC(=O)CC[C@@]43C)[C@@H]1CC[C@@H]2O [Testosterone] | 3.8
57 | C[C@]12C=CC(=O)C=C1CC[C@H]1[C@@H]3C[C@@H](O)[C@](O)(C(=O)CO)[C@@]3(C)C[C@H](O)[C@@]12F [Triamcinolone] | 3.37
58 | c1ccc2cc3ccccc3cc2c1 [anthracene] | 3.41
59 | c1ccccc1 [benzene] | 2.17
60 | c1ccc2c(c1)cc1ccc3cccc4ccc2c1c34 [benzo[a]pyrene] | 3.34
61 | O=C(c1ccccc1)c1ccccc1 [benzophenone] | 3.08
62 | OCc1ccccc1 [benzyl alcohol] | 1.7
63 | CCCCC(=O)O[C@]1(C(=O)CO)[C@@H](C)C[C@H]2[C@@H]3CCC4=CC(=O)C=C[C@]4(C)[C@@]3(F)[C@@H](O)C[C@@]21C [betamethasone-17-valerate] | 3.32

Row | Compound | Log K(1:1)
64 | Brc1ccccc1 [bromobenzene] | 2.49
65 | CCCCOC(=O)c1ccc(O)cc1 [butylparaben] | 3.32
66 | Clc1ccccc1 [chlorobenzene] | 2.2
67 | CC(=O)OCC(=O)[C@@]1(O)CC[C@H]2[C@@H]3CCC4=CC(=O)CC[C@]4(C)[C@H]3C(=O)C[C@@]21C [cortisone acetate] | 3.62
68 | C1CCCCC1 [cyclohexane] | 2.19
69 | O=C1CCCCC1 [cyclohexanone] | 2.71
70 | C1CCCC1 [cyclopentane] | 1.95
71 | c1ccc(Nc2ccccc2)cc1 [diphenylamine] | 3.03
72 | Fc1ccccc1 [fluorobenzene] | 1.85
73 | CC(C(=O)O)c1ccc(-c2ccccc2)c(F)c1 (stereo not shown) [flurbiprofen] | 3.71
74 | CCCCCC(=O)O [hexanoic acid] | 2.47
75 | Ic1ccccc1 [iodobenzene] | 2.9
76 | CCC1(CC)C(=O)NC(=O)N(C)C1=O [metharbital] | 2.36
77 | C1COCCN1 [morpholine] | 1.23
78 | c1ccc2cc3cc4ccccc4cc3cc2c1 [naphthacene] | 3.53
79 | O=C(O)c1ccc(O)cc1 [p-hydroxybenzoic-acid] | 3.03
80 | c1ccc2c(c1)ccc1ccccc12 [phenanthrene] | 3.18
81 | O=C1OC(c2ccc(O)cc2)(c2ccc(O)cc2)c2ccccc21 [phenolphthalein] | 4.56
82 | CC(=O)OCC(=O)[C@@]1(O)CC[C@H]2[C@@H]3CCC4=CC(=O)C=C[C@]4(C)[C@H]3[C@@H](O)C[C@@]21C [prednisolone-21-acetate] | 3.76
83 | CCCOC(=O)c1ccc(O)cc1 [propylparaben] | 2.97
84 | c1cc2ccc3cccc4ccc(c1)c2c34 [pyrene] | 2.45
85 | O=C(O)c1ccccc1O [salicylic-acid] | 2.63
86 | ClC(Cl)(Cl)Cl [tetrachloromethane] | 2.18

Same assay, conditions: validation set; known binding constants

Row | Compound | Log K(1:1)
87 | Oc1ccc(O)cc1 [1,4-benzenediol] | 2.09
88 | CC(C)(C)CO [2,2-dimethylpropanol] | 2.69
89 | Cc1cccc(O)c1 [3-methylphenol] | 2.34
90 | c1cc2c3c(cccc3c1)CC2 [Acenaphthene] | 2.01
91 | CC(=O)Nc1ccc(O)cc1 [Acetaminophen] | 2.03
92 | OC1CCCCCCC1 [Cyclooctanol] | 3.3
93 | CN[C@@H](C)[C@H](O)c1ccccc1 [Ephedrine] | 2.25
94 | FF [Fluorine] | 3.13
95 | C[C@]12CCC(=O)C=C1CC[C@@H]1[C@@H]2[C@@H](O)C[C@@]2(C)[C@H]1CC[C@]2(O)C(=O)CO [Hydrocortisone] | 3.46
96 | c1ccc2ccccc2c1 [Naphthalene] | 2.87
97 | CC(=O)Oc1ccccc1C(=O)O [acetylsalicylic acid] | 3.23
98 | O=C(O)C=Cc1ccccc1 [cinnamic acid] | 2.57
99 | CCCCCCCCCC(=O)O [decanoic acid] | 3.97
100 | CCOC(=O)c1ccc(N)cc1 [ethyl-p-aminobenzoate] | 2.69
101 | CC(=O)OCC(COC(C)=O)OC(C)=O [glyceryl triacetate] | 1.15
102 | CC(=O)OCC(=O)[C@@]1(O)CC[C@H]2[C@@H]3CCC4=CC(=O)CC[C@]4(C)[C@H]3[C@@H](O)C[C@@]21C [hydrocortisone-21-acetate] | 3.51
103 | Cc1ccc(C(=O)O)cc1 [p-toluic acid] | 3.23
